Values joined by “and” are separate entries in the source; they are usually repeats but may differ in a detail not shown here. Equal values may be shown once.
Assays:
[1] = Ex vivo biodistribution in female Lewis rats; set-up: species or system rat
From the text: Organs of blood, heart, lung, muscle, fat, pancreas, spleen, kidney, liver, thymus, brain, and bone were dissected and collected for counting. All the samples were counted with a dilution of the injectate on an automated well counter (Beckman Gamma 8000 well counter). Tissues were weighed and the uptake was reported as background and decay-corrected percent injected dose per gram (% ID/g).
The whole brains were quickly harvested and dissected into regions of cerebellum, brain stem, cortex, striatum, thalamus, and hippocampus, the remainder of the brain was also collected to determine the total brain uptake. Organs of blood, heart, lung, muscle, fat, pancreas, spleen, kidney, liver, thymus, and bone were also dissected and collected for counting. All the samples were counted with a dilution of the injectate on an automated well counter (Beckman Gamma 8000 well counter). Tissues were weighed and the uptake was reported as background and decay-corrected percent injected dose per gram (% ID/g).

[2] = Ex vivo autoradiography of [18F]22b in rat brain; settings: male SD rat, 60 min post-injection
Method: Frozen slides were directly exposed to a BAS storage phosphor screen film (BAS-IP-MS-2025) in an imaging cassette (Fuji Photo Film Co., Tokyo, Japan) for 12 h at -80° C. under the dark. The distribution of radioactivity was visualized by a Fuji Bio-Imaging Analyzer FLA-7000 (Fuji Photo Film Co., Tokyo, Japan). […] E. Toman, S. Spiegel, Lysophospholipid receptors in the nervous system, Neurochem. Res. 27 (2002) 619-627; […]. Tanaka, J. Aoki, H. Arai, S. Noji, Expression patterns of the lysophospholipid receptor genes during mouse early development, Dev. Dyn. […] Cytochem. 58 (2010) 847-856).

S1P1 [3] = target: S1P1 (Rattus norvegicus (Rat), UniProt P48303); experiment: MicroPET and tracer kinetic modeling in EAE rat model, lumbar spinal cord; type: in vivo
Chain of S1P1 (Rattus norvegicus (Rat), UniProt P48303) (P48303 whole entry): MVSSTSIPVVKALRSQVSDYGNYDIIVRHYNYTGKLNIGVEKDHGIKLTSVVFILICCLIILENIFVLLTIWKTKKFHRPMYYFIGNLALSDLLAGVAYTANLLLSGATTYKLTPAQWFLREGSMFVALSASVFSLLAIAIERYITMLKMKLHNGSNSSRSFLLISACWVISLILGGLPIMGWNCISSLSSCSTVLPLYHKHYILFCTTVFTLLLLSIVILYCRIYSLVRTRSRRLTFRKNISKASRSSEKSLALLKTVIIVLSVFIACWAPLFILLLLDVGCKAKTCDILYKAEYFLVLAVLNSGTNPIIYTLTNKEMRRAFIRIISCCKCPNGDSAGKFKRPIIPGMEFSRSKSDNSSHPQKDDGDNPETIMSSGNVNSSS
Method: MicroPET scans were performed using an Inveon PET/CT system (Siemens Inc., Knoxville, Tenn.). […] Each rat was secured to a custom-designed acrylic bed equipped with a nosecone for gas anesthesia. PET/CT scans were conducted under 1.5-2% isoflurane anesthesia with the rat placed in transaxial position and centered with the T13 vertebral spine in the field of view. […] A list mode protocol was used with 60-min dynamic data acquisition.
PET image data was processed using filter back projection algorithm with attenuation and scatter corrections. The data were reconstructed per time frame employing an iterative reconstructional algorithm (three-dimensional ordered subset expectation maximization (3D-OSEM), maximum a posteriori (MAP)) and corrected for decay, random coincidences, scatter, and attenuation. […] Image data was analyzed using Inveon Research Workstation software IRW 4.2 (Siemens Inc., Knoxville, Tenn.). The regions of interest (ROI), the lumbar spinal cord and bilateral common carotid arteries, were drawn over the co-registered PET/CT images using the standard protocol published previously. Time-activity curves (TACs) were obtained and were expressed as % ID/g. A two-tailed t-test was used for the comparison of the tracer uptake in EAE rat lumbar spinal cord versus sham. A P value less than 0.05 was considered statistically significant. Time-activity curves were further analyzed using 2-tissue-compartment model (2TCM), as well as Logan graphical analysis, using the ROI over bilateral common carotid arteries for image-based arterial blood input function.

S1P1 [4] = target: S1P1 (Mus musculus (Mouse), UniProt O08530); experiment: In vitro autoradiography of [18F]22b in brain slices of LPS-treated mice, SEW2871 blocking; type: binding; settings: brain sections of LPS-treated mice, ~6 nM tracer, 10 μM SEW2871, 60 min RT
Chain of S1P1 (Mus musculus (Mouse), UniProt O08530) (O08530 whole entry): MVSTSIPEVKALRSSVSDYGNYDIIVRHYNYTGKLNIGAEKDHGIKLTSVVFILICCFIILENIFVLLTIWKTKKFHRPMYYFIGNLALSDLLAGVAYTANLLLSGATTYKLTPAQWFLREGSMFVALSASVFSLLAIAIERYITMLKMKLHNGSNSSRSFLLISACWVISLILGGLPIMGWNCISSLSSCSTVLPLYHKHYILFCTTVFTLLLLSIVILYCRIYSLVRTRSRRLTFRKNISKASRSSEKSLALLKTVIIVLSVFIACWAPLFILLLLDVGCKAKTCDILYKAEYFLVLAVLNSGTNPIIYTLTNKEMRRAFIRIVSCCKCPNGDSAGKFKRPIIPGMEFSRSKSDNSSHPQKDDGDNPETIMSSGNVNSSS
Method: To confirm the binding specificity of [^18F]22b toward S1P1, in vitro autoradiography studies were performed using mouse brain slices that generated from LPS-induced murine neuroinflammation model, a widely used model for neuroinflammation, and the expression of S1P1 was activated in the mouse brain following the LPS injection according to the report (M. Kono, E. G. Conlon, S. Y. Lux, K. Yanagida, T. Hla, R. L. Proia, Bioluminescence imaging of G protein-coupled receptor activation in living mice, Nat. Commun. 8 (2017) 1163). Adult male C57BL/6 mice (20-25 g, Charles River Inc., Frederick, Md.) were used to generate LPS-induced neuroinflammation murine model. The mice (n=2) received an intraperitoneal injection of LPS from E. coli 055:65 (Sigma-Aldrich, St. Louis, Mo., USA) in saline (3 mg/mL) at dose of 15 mg/kg (5 mL/kg) and then euthanized at 24 h post-injection. Mouse brains were collected and cut into 20 μm sequential sections using a Microm cryotome and mounted on glass slides. […] The distribution of radioactivity was visualized by a Fuji Bio-Imaging Analyzer FLA-7000 (Fuji Photo Film, Tokyo, Japan). Photo-stimulated luminescence (PSL) from the brain slices was quantified using Multi Gauge v3.0 software (Fuji Photo Film Co., Tokyo, Japan). Data were background-corrected, and expressed as photo-stimulated luminescence signals per square millimeter (PSL/mm^2).

OCc1cn(Cc2ccc(-c3noc(-c4ccc(OCC[18F])c(C(F)(F)F)c4)n3)cc2)nn1 [[^18F]22b]
Tissue uptake, Blood ([1]; 5 min p.i., n = 4): 0.49 % ID/g and 0.49 ± 0.07 % ID/g
Tissue uptake, Blood ([1]; 30 min p.i., n = 4): 0.42 ± 0.05 % ID/g
Tissue uptake, Blood ([1]; 60 min p.i., n = 4): 0.36 ± 0.02 % ID/g
Tissue uptake, Blood ([1]; 120 min p.i., n = 4): 0.35 ± 0.01 % ID/g
Tissue uptake, Bone ([1]; 5 min p.i., n = 4): 0.55 % ID/g and 0.55 ± 0.05 % ID/g
Tissue uptake, Bone ([1]; 30 min p.i., n = 4): 0.45 ± 0.03 % ID/g
Tissue uptake, Bone ([1]; 60 min p.i., n = 4): 0.45 ± 0.01 % ID/g
Tissue uptake, Bone ([1]; 120 min p.i., n = 4): 0.51 ± 0.05 % ID/g
Tissue uptake, Brain ([1]; 5 min p.i., n = 4): 0.49 % ID/g and 0.49 ± 0.04 % ID/g
Tissue uptake, Brain ([1]; 30 min p.i., n = 4): 0.57 % ID/g and 0.57 ± 0.02 % ID/g
Tissue uptake, Brain ([1]; 60 min p.i., n = 4): 0.71 % ID/g and 0.71 ± 0.03 % ID/g
Tissue uptake, Brain ([1]; 60 min p.i., n = 4, listed as 18F-TZ43113): 0.71 % ID/g
Tissue uptake, Brain ([1]; 120 min p.i., n = 4): 0.61 % ID/g and 0.61 ± 0.05 % ID/g
Tissue uptake, Fat ([1]; 5 min p.i., n = 4): 0.51 % ID/g and 0.51 ± 0.22 % ID/g
Tissue uptake, Fat ([1]; 30 min p.i., n = 4): 0.62 ± 0.10 % ID/g
Tissue uptake, Fat ([1]; 60 min p.i., n = 4): 0.69 ± 0.07 % ID/g
Tissue uptake, Fat ([1]; 120 min p.i., n = 4): 0.57 ± 0.07 % ID/g
Tissue uptake, Heart ([1]; 5 min p.i., n = 4): 1.65 % ID/g and 1.65 ± 0.27 % ID/g
Tissue uptake, Heart ([1]; 30 min p.i., n = 4): 1.19 % ID/g and 1.19 ± 0.06 % ID/g
Tissue uptake, Heart ([1]; 60 min p.i., n = 4): 1.05 ± 0.08 % ID/g
Tissue uptake, Heart ([1]; 120 min p.i., n = 4): 0.94 ± 0.06 % ID/g
Tissue uptake, Kidney ([1]; 5 min p.i., n = 4): 3.43 % ID/g and 3.43 ± 0.31 % ID/g
Tissue uptake, Kidney ([1]; 30 min p.i., n = 4): 2.11 % ID/g and 2.11 ± 0.08 % ID/g
Tissue uptake, Kidney ([1]; 60 min p.i., n = 4): 1.91 ± 0.10 % ID/g
Tissue uptake, Kidney ([1]; 120 min p.i., n = 4): 1.62 ± 0.09 % ID/g
Tissue uptake, Liver ([1]; 5 min p.i., n = 4): 5.69 % ID/g and 5.69 ± 0.60 % ID/g
Tissue uptake, Liver ([1]; 30 min p.i., n = 4): 4.30 % ID/g and 4.30 ± 0.37 % ID/g
Tissue uptake, Liver ([1]; 60 min p.i., n = 4): 4.21 ± 0.21 % ID/g
Tissue uptake, Liver ([1]; 120 min p.i., n = 4): 3.66 ± 0.14 % ID/g
Tissue uptake, Lung ([1]; 5 min p.i., n = 4): 2.79 % ID/g and 2.79 ± 0.57 % ID/g
Tissue uptake, Lung ([1]; 30 min p.i., n = 4): 1.96 % ID/g and 1.96 ± 0.07 % ID/g
Tissue uptake, Lung ([1]; 60 min p.i., n = 4): 1.67 ± 0.09 % ID/g
Tissue uptake, Lung ([1]; 120 min p.i., n = 4): 1.54 ± 0.07 % ID/g
Tissue uptake, Muscle ([1]; 5 min p.i., n = 4): 0.39 % ID/g and 0.39 ± 0.04 % ID/g
Tissue uptake, Muscle ([1]; 30 min p.i., n = 4): 0.59 ± 0.05 % ID/g
Tissue uptake, Muscle ([1]; 60 min p.i., n = 4): 0.51 ± 0.02 % ID/g
Tissue uptake, Muscle ([1]; 120 min p.i., n = 4): 0.47 ± 0.02 % ID/g
Tissue uptake, Pancreas ([1]; 5 min p.i., n = 4): 1.96 % ID/g and 1.96 ± 0.56 % ID/g
Tissue uptake, Pancreas ([1]; 30 min p.i., n = 4): 1.89 ± 0.16 % ID/g
Tissue uptake, Pancreas ([1]; 60 min p.i., n = 4): 1.52 ± 0.25 % ID/g
Tissue uptake, Pancreas ([1]; 120 min p.i., n = 4): 1.45 ± 0.15 % ID/g
Tissue uptake, Spleen ([1]; 5 min p.i., n = 4): 2.22 % ID/g and 2.22 ± 0.23 % ID/g
Tissue uptake, Spleen ([1]; 30 min p.i., n = 4): 1.36 % ID/g and 1.36 ± 0.04 % ID/g
Tissue uptake, Spleen ([1]; 60 min p.i., n = 4): 1.27 ± 0.08 % ID/g
Tissue uptake, Spleen ([1]; 120 min p.i., n = 4): 1.14 ± 0.10 % ID/g
Tissue uptake, Thymus ([1]; 5 min p.i., n = 4): 0.69 % ID/g and 0.69 ± 0.08 % ID/g
Tissue uptake, Thymus ([1]; 30 min p.i., n = 4): 0.83 ± 0.07 % ID/g
Tissue uptake, Thymus ([1]; 60 min p.i., n = 4): 0.82 ± 0.04 % ID/g
Tissue uptake, Thymus ([1]; 120 min p.i., n = 4): 0.78 ± 0.05 % ID/g
Defluorination in vivo (bone uptake 5 to 120 min) ([1]; bone radioactivity unchanged): no defluorination in vivo
Regional brain uptake, brain stem ([1]; brain stem, 5 min p.i.): 0.50 ID %/g
Regional brain uptake, cerebellum ([1]; cerebellum, 5 min p.i.): 0.53 ID %/g
Regional brain uptake, cortex ([1]; cortex, 5 min p.i.): 0.59 ID %/g
Regional brain uptake, hippocampus ([1]; hippocampus, 5 min p.i.): 0.43 ID %/g
Time of maximum brain uptake ([1]; post injection): 60 min
Regional brain uptake, striatum ([1]; striatum, 5 min p.i.): 0.47 ID %/g
Regional brain uptake, thalamus ([1]; thalamus, 5 min p.i.): 0.46 ID %/g
Blood-brain barrier crossing, rat brain [2]: able to cross the BBB
Visualization of rat lumbar spinal cord by microPET (S1P1 [3]; EAE and sham rats): not high enough for clear visualization
Tracer uptake in lumbar spinal cord, EAE (S1P1 [3]; EAE rats, summed % ID/g value, 10-60 min post injection, n=4): 0.47±0.05 % ID/g
Increase of tracer uptake in EAE rat lumbar spinal cord compared with shams (S1P1 [3]; microPET, 10-60 min post injection, listed as 18F-TZ43113): ~37% and 36.7%
Tracer uptake in sham rat spinal cord (TAC) (S1P1 [3]; sham rats, 10-60 min post injection): approximately 0.35 % ID/g
Tracer uptake in lumbar spinal cord, sham (S1P1 [3]; sham rats, summed % ID/g value, 10-60 min post injection, n=4): 0.34±0.05 % ID/g
Reduction of tracer uptake by SEW2871 blocking (S1P1 [4]): ~36%
